# According to patent US20040171594A1, “Use of bis-acid(5-androsten-17-one-3beta-hydroxyl)diester for manufacture pharmaceuticals” (priority 2001, published 2004):
# Marks after values point to notes of the source that are not given here.
# How the values were obtained:
# [1] = tested on: osteoporosis model of rats induced by Retinoic acid; experiment: Osteoporosis model of rats induced by Retinoic acid; format: in vivo, SD rats; conditions: Retinoic acid 70 mg/kg, specimen orally 30 days (dose not given), right thighbone, n=8
# From the text: After continuously administering specimen for 30 days, killed rats and took right thighbone of rat.
# Took same part tissue of right thighbone, routinely decalcified, enveloped with olefin, and dyed with HE. Observed with ordinary optics microscope, import all imagines into computer with A/D conversion of pickup camera, via dealing with image analysis software obtained index of guide line as follows: relative bone volume, indicating percentage that bone trabecula accounted for medullary cavity, 1.25×10×4 times; average width of bone trabecula, 1.25×10×10 times; amount of cell per area in bone trabecula, gathering same area image (640×480) of bone trabecula with image analysis software, calculating amount of bone cell in corresponding area, 1.25×10×40 times; Average length of bone cell lacuna, 1.25×10×40; Average width of bone cell lacuna, 1.25×10×40. The above five indexes of static state guide-line were all observed for ten eyeshots, calculating their average value.
# [2] = tested on: acute renal failure of mice induced by endotoxin; experiment: Acute renal failure model induced by endotoxin; format: in vivo, NIH mice; conditions: drug 10 mg/kg i.p., endotoxin 0.06 g/kg, after five hours, n=10; for GSH-Px: mice kidney homogenate; for BUN / Cr: mice serum
# Procedure: After five hours, blood of the mice was collected by removing eyes, assayed Blood Urea Nitrogen (BUN) and Creatinine (Cr) concentration of serum. One kidney of each […] was taken out and made 100 mL/L homogenate, assayed activity of Glutathione Peroxidase (GSH-Px) enzyme.
# [3] = tested on: myocardium injury model of rats induced by ISO; experiment: Myocardium injury (myocardial ischemia) model of rats induced by ISO; format: in vivo, SD rats; conditions: drug 0.76 mg/kg, n=8; for Σ ST: rats, ISO s.c.
# Procedure: SD rats were measured ECG by chest leads before experiment, abandoned those of abnormal or arrhythmia at T wave, ST sect. […] They were divided into four groups according to Table 4, eight rats in each group. As dose of Table 4, tested compounds or 0.5% CMC-Na solution with same volume were administered through duodenum for 30 minutes, rats were anaesthetized with aether. After ECG was recorded, Isoproterenol (ISO) was administered by subcutaneous injection from the back, recorded ECG again after 30 minutes. After specimen was intragastricly granted for 24 hours and 48 hours, every group was administered simples again and recorded ECG again in terms of the methods stated above. After 72 hours, bleeding from the ophthalmic venous plexus and separated blood serum through centrifugation. Killed the rats, scissor the tip of the heart to prepare 10% myocardial tissue homogenate with 4° C. physiological saline as standby.
# Measured each rat's value of ST before first administering ISO. And after first, second and third subcutaneous injection for 30 minutes, calculated mv mean value of ΣST as guide line of myocardium injury and performed t test.
# The changes of MDA LDH and CK in serum were measured with agent kits.
# The changes of MDA, LDH and CK in serum and myocardial tissue homogenate were measured with agent kits.
# [4] = tested on: cerebral ischemia-reperfusion injury of mice; experiment: Memory step-through test after cerebral ischemia-reperfusion injury; format: in vivo, NIH mice; conditions: 4.5 mg/kg intragastric once a day for 10 days, n=10
# Procedure: After weighed, NIH mice were anaesthetized with Penbotarbital 60 mg/kg, then performed operation. Fixed at supine position, the skin in the middle of the deck was dissected about 7 mm. Separated common carotid artery of two sides of neck, surrounded with the thread of No “0”. Common carotid artery of two sides was chipped with artery clip for 2 minutes to induce cerebral ischemia. In the end of ischemia treatment, artery clip was loosed and blood perfusion was restored, rest for five minutes, repeated twice as that. After blocking blood flow of carotid, sutured incision. Recorded trail bloodletting, bloodletting quantity was no more than 10% of total blood quantity. After operation, […] were administered with proper physiological saline through intraperitoneal injection in order to supple capacity of blood. After pseudo operation group was anaesthetized, carotid of two sides was separated but blood flow was not blocked, without being bloodletting too.
# In experiment appearance of body temperature lowering and righting reflex disappearing was as positive guide-line of ischemia, discarding those without typical guide line of ischemia. In the procedure of ischemia or after operation, some of animals would be dead. […] According to the dose of Table 7, animals were administered with medicine by intragastric intubation once a day, and continue administered drug for 10 days. After 10 days, memory test was performed.
# [5] = tested on: arrhythmia of rats induced by Aconitine; experiment: Arrhythmia of rats induced by Aconitine; format: in vivo, SD rats
# Procedure: Male SD rats, weighing (218.3±20.0) g, were anaesthetized with urethane 1.2 g/kg body weight by abdominal injection, continuously monitored by II lead electrocardiogram (ECG) by MS302 Biological Signal Record and Analysis System. After ten minutes of being administered drug or 0.5% CMC-Na through sublingual vein, rats were injected with Aconitine in external jugular vein at 2.5 μg/min speed, recorded the dose at appearance time of ventricular premature beat (VP), ventricular tachycardia (VT), ventricular fibrillation (VF) and cardiac arrest (CA), respectively. And t test was performed. […] The effect of compounds Ca Do E at 0.5 mg/kg dose were remarkably better than that of Prasterone and Arniodarone.
# [6] = tested on: thymus and spleen of mice; experiment: Indexes of thymus and spleen of mice injected with cyclophosphamide; format: in vivo, NIH mice; conditions: cyclophosphamide 60 mg/kg i.p., drug 10 mg/kg intragastric for 30 days, n=10
# Procedure: Chose 90 healthy NIH mice, weighing (18˜22)g, equal amount of male and female. Every mouse was injected with cyclophos phamide (60 mg/kg, intraperitoneally). […] Administered specimen through intragastric intubation in terms of the dose in Table 8. Continuously administered orally specimen for 30 days, all mice fasted on the 30th day, but were supplied with water. On the 31th day, mice of every group were killed. Weighed their body, thymus and spleen, calculated index of thymus and spleen, compared the difference among each group.
# [7] = tested on: arrhythmia of guinea pigs induced by Ouabain; experiment: Arrhythmia of guinea pigs induced by Ouabain; format: in vivo; conditions: n=8
# Procedure: Chose 40 male guinea pigs, weighing (288.8±38.3) g, randomly divided into six groups, anaesthetized with urethane 1.2 g/kg by abdominal injection. Ten minutes after administered drug or 0.5% CMC-Na, the guinea pigs were injected Ouabain into external jugular vein at 3 μg/min speed, recorded ECG respectively, measured the dose at appearance time of VP, VT, VF and CA, and performed t test.
# [8] = myocardial tissue homogenate of rats with ISO myocardium injury
# [9] = serum of rats with ISO myocardium injury, after 72 hours
# [10] = rats, drug 0.5 mg/kg sublingual vein 10 min before Aconitine 2.5 μg/min, n=10
# [11] = drug 4.5 mg/kg 10 min before Ouabain 3 μg/min
# [12] = drug 2.5 mg/kg 10 min before Ouabain 3 μg/min
Compound,Amount of cell per area in bone trabecula [1],Average width of bone trabecula [1],GSH-Px [2],BUN [2],"Activity of CK [3, 8]","Activity of LDH [3, 8]","MDA [3, 8]",Σ ST ([3]; 30 min),Σ ST ([3]; 24 h),Σ ST ([3]; 48 h),Σ ST ([3]; 72 h),"Activity of CK [3, 9]","Activity of LDH [3, 9]","MDA [3, 9]","Latency of dark cabin, Memory [4]","Latency of dark cabin, Study [4]",Number of error [4],Relative bone volume [1],Cr [2],Dose of Aconitine required to induce CA ([5]; {}),also measured
"C[C@]12CC[C@H](OC(=O)CC(=O)O[C@H]3CC[C@@]4(C)C(=CC[C@@H]5[C@@H]4CC[C@]4(C)C(=O)CC[C@@H]54)C3)CC1=CC[C@@H]1[C@@H]2CC[C@]2(C)C(=O)CC[C@@H]12 [Compound C, malonic acid-(5-androsten-17-one-3β-ol)-diester]",19.50 ± 5.54,72.69 ± 10.38 μm,29.8 ± 11.6 nU · L^−1,387.0 ± 40.2*** 10 mg · L^−1,186.55 ± 26.25 U/L,201.33 ± 25.24 U/L,121.67 ± 15.24 nmol/g,0.64 ± 0.21 mv,0.52 ± 0.11 mv,0.50 ± 0.14 mv,0.52 ± 0.12 mv,262.50 ± 35.41 U/L,270.13 ± 27.46 U/L,28.29 ± 6.56 nmol/mL,58.1 ± 16.2 s,24.4 ± 17.3 s,2.5 ± 1.5 n,,,,"Dose of Aconitine required to induce CA [5, 10]: 0.1865 ± 0.0317 mg/kg; Dose of Aconitine required to induce VF [5, 10]: 0.1528 ± 0.0393 mg/kg; Dose of Aconitine required to induce VP [5, 10]: 0.098 ± 0.0291 mg/kg; Dose of Aconitine required to induce VT [5, 10]: 0.1189 ± 0.0353 mg/kg"
"CC12CCC3C(CC=C4CC(OC(=O)CCC(=O)OC5CCC6(C)C(=CCC7C8CCC(=O)C8(C)CCC76)C5)CCC43C)C1CCC2=O (stereo not drawn) [Compound D, succinic acid-(5-androsten-17-one-3β-ol)-diester]",20.70 ± 5.27,70.76 ± 8.56 μm,38.4 ± 15.0 nU · L^−1,295.5 ± 36.0*** 10 mg · L^−1,270.41 ± 34.31 U/L,292.27 ± 29.44 U/L,78.43 ± 7.51 nmol/g,0.42 ± 0.20 mv,0.47 ± 0.13 mv,0.42 ± 0.08 mv,0.40 ± 0.10 mv,229.27 ± 31.32 U/L,218.55 ± 37.35 U/L,18.15 ± 4.52 nmol/mL,67.4 ± 19.7 s,37.3 ± 15.1 s,1.2 ± 1.0 n,41.55 ± 4.38 %,29.31 ± 7.94*** 10 mg · L^−1,0.204 ± 0.028 mg/kg,Index of spleen [6]: 103.47 ± 13.40 mg/10 g body weight; Index of thymus [6]: 25.59 ± 3.70 mg/10 g body weight; Dose of Aconitine required to induce VF ([5]; {}): 0.1864 ± 0.0302 mg/kg; Dose of Aconitine required to induce VP ([5]; {}): 0.1224 ± 0.0205 mg/kg; Dose of Aconitine required to induce VT ([5]; {}): 0.1378 ± 0.0244 mg/kg
"C[C@]12CC[C@H](O)CC1=CC[C@@H]1[C@@H]2CC[C@]2(C)C(=O)CC[C@@H]12 [Parsterone, Prasterone, reference compound]",,,,,,,,,,,,,,,,,,,,0.1645 ± 0.0271 mg/kg,"Dose of Oua at appearance of CA [7, 11]: 0.1955 ± 0.033 mg/kg; Dose of Oua at appearance of VF [7, 11]: 0.1654 ± 0.0264 mg/kg; Dose of Oua at appearance of VP [7, 11]: 0.0893 ± 0.0155 mg/kg; Dose of Oua at appearance of VT [7, 11]: 0.1316 ± 0.0246 mg/kg; Dose of Aconitine required to induce VF ([5]; {}): 0.1327 ± 0.0244 mg/kg; Dose of Aconitine required to induce VP ([5]; {}): 0.0935 ± 0.019 mg/kg; Dose of Aconitine required to induce VT ([5]; {}): 0.11 ± 0.0161 mg/kg"
"C=C1/C(=C\C=C2/CCC[C@]3(C)[C@@H]([C@H](C)CCCC(C)(C)O)CC[C@@H]23)C[C@@H](O)C[C@@H]1O [Rocaltrol, reference compound]",19.27 ± 3.89,67.16 ± 13.11 μm,,,,,,,,,,,,,,,,36.72 ± 7.82 %,,,
propanediol-disulphonic acid-(5-androsten-17-one-3β-ol)-diester [Compound H],35.69 ± 3.70,60.84 ± 4.81 μm,35.6 ± 10.7 nU · L^−1,366.0 ± 30.2*** 10 mg · L^−1,230.15 ± 53.46 U/L,,105.52 ± 14.64 nmol/g,0.53 ± 0.11 mv,0.50 ± 0.10 mv,0.52 ± 0.04 mv,0.51 ± 0.12 mv,261.24 ± 24.27 U/L,253.24 ± 31.55 U/L,21.17 ± 3.36 nmol/mL,56.0 ± 17.2 s,26.2 ± 15.2 s,3.0 ± 1.5 n,,35.78 ± 7.26*** 10 mg · L^−1,,"Dose of Oua at appearance of CA [7, 12]: 0.2232 ± 0.0307 mg/kg; Dose of Oua at appearance of VF [7, 12]: 0.1981 ± 0.0415 mg/kg; Dose of Oua at appearance of VP [7, 12]: 0.116 ± 0.037 mg/kg; Dose of Oua at appearance of VT [7, 12]: 0.1402 ± 0.0356 mg/kg"
